Source: patent publication US20090186762A1, “METHOD FOR IMPROVING THE TOLERANCE OF PLANTS TO CHILLING TEMPERATURES AND/OR FROST” (BASF SE, priority 2006, published 2009)

How the values were obtained:
Format in all cases: in vivo
[1] = test system: Arabidopsis thaliana plants; test: Cold/freezing stress on Arabidopsis thaliana plants, visual assessment of % leaf damage; details: for reduction of cold stress symptoms: Arabidopsis plants under different stress conditions
Protocol: Arabidopsis thaliana plants were grown in pots (8 cm diameter) under controlled environmental conditions at 21° C. during the day and at 19° C. during the night, under a light regiment of 9 h light and 15 h dark per day.
Chemical treatment was done 18 days after sowing. Each pot was treated with 500 μl of spray solution according to the treatment schedule below with a commercial pump spray applicator.
2) Orysastrobin (250 ppm) 3) Orysastrobin (500 ppm) 4) Pyraclostrobin (500 ppm)
After chemical treatment, the pots have been transferred to the same growth conditions for three days. Then the pots were transferred to three different environmental conditions to exert cold stress:
Control plants (A) were kept under the same conditions as described above.
Stressed plants (B) were transferred for 2 days to 6° C. under a 9-15 h day-night cycle. This cold treatment allows Arabidopsis plants to acclimate to a certain extent to the following freezing stress (−4° C., 24 h in the dark) (Wanner et al., 1999, Cold-induced freezing tolerance in Arabidopsis, Plant Physiology 120, 391-399).
Stressed plants (C) were not cold-hardened and kept for another 2 days under control environment before being transferred for one day to −4° C. without light.
After these treatments, all pots were returned to standard growth conditions (controlled environmental conditions) as described above.
3 days and 9 days after chemical treatment (3 days after recovery from freezing treatment) the trial was evaluated by visual assessment, scoring the symptoms in % leaf damage.

[2] = test system: Corn seeds (Zea mays; variety Pioneer herbicide resistant 33P71); test: Cold stress on corn seedlings after seed treatment; details: second exposure to cold stress (−5° C., 2 hours, code 13)
Protocol: Corn seeds (Zea mays; variety Pioneer herbicide resistant 33P71) were treated using either:
T1: Water (untreated) T2: Pyraclostrobin (5 g active ingredient 100 kg seeds) T3. Azoxystrobin (1 g active ingredient/100 kg seeds)
Subsequently, the treated seeds were planted in plastic pots (6 cm×6 cm×7 cm) filled with sand (metro mix). Seeds were incubated in a growth chamber (Conviron) at 25° C. and 60% humidity under a dark/light cycle of 16/8 h for 5 days (seedlings were at code 10). At this point, seedlings were exposed to a temperature of −5° C. for 3 hours. Following cold stress, the viable seedlings were kept growing until they had reached code 13. At this stage, they were submitted to additional 2 hours of cold stress at −5° C. Finally, the number of damaged seedlings (%) for each seed treatment was recorded.

[3] = test system: Adult Citrus trees (Citrus sinensis); test: Field freeze protection of adult Citrus trees by leaf application; details: three 1600 g/ha leaf applications at 14 to 18 day intervals
Protocol: Adult Citrus trees (Citrus sinensis) were treated by three 1600 g/ha pyraclostrobin leaf applications at 14 to 18 day intervals. Applications began shortly before the initial freeze in winter seasons. Temperatures dropped to −6° C. in three separate cold weather events. With extreme low temperatures, nothing is expected to reduce damage.

[4] = stress condition A (control plants, 21° C./19° C., no cold stress), 500 ppm spray, 9 days after chemical treatment
[5] = stress condition B (2 days 6° C. hardening, then −4° C. 24 h dark), 500 ppm spray, 3 days after recovery from freezing
[6] = stress condition C (not cold-hardened, −4° C. 24 h dark), 500 ppm spray, 3 days after recovery from freezing

Compound	reduction of cold stress symptoms [1]	leaf damage ([1]; stress condition A (control plants, 21° C./19° C., no cold stress), 250 ppm spray, 9 days after chemical treatment)	leaf damage [1, 4]	leaf damage ([1]; stress condition B (2 days 6° C. hardening, then −4° C. 24 h dark), 250 ppm spray, 3 days after recovery from freezing)	leaf damage [1, 5]	leaf damage ([1]; stress condition C (not cold-hardened, −4° C. 24 h dark), 250 ppm spray, 3 days after recovery from freezing)	leaf damage [1, 6]	number of damaged seedlings (%) ([2]; seed treatment 5 g active ingredient 100 kg seeds)	chilling protection in citrus ([3]; temperatures dropped to −6° C.)	leaf burn symptoms and fruit drop versus untreated control plants ([3]; temperatures dropped to −6° C. in three cold weather events)	number of damaged seedlings (%) ([2]; seed treatment 1 g active ingredient/100 kg seeds)
CNC(=O)/C(=N/OC)c1ccccc1CO/N=C(C)/C(=N/OC)C(/C)=N/OC [Orysastrobin, orysastrobin]	highly effective to reduce cold stress symptoms	0%	0%	0%	0%	5%	10%				
pyraclostrobin	highly effective to reduce cold stress symptoms		0%		0%		30%	0%	strong chilling protection	less leaf burn symptoms and fruit drop	
CO/C=C(/C(=O)OC)c1ccccc1Oc1cc(Oc2ccccc2C#N)ncn1 [Azoxystrobin, azoxystrobin]											38%
